From patent US6914045B2, “Glycopeptide antibiotics” (Wyeth Holdings Corporation, priority 2001, dated 2005)
Values after ≈ are worked out from the molar mass of the structure shown.

Legend:
Assay in all cases: in vitro antibacterial evaluation, MIC by broth dilution
Format in all cases: cell-based
Escherichia coli = settings: 18 hours at 35° C.
Method in brief: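 MIC is the lowest antibiotic concentration (tested 64-0.06 μg/mL) preventing growth of a 5×10^5 CFU/mL inoculum. Determined by broth dilution in Mueller-Hinton II medium following NCCLS standard M7-A2.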

Enterococcus sp. = settings: broth dilution, 18 hours at 35° C.
Method: (§1) Methods for in vitro Antibacterial Evaluation (Table 1)
(§2) The minimum inhibitory concentration (MIC), the lowest concentration of the antibiotic which inhibits growth of the test organism, is determined by the broth dilution method using Muller-Hinton II […] (Baltimore Biological Laboratories) following the recommendations of the National Committee for Clinical Laboratory Standards [Methods for dilution antimicrobial susceptibility tests for bacteria that grow aerobically, approved standard M7-A2, National Committee for Clinical Laboratory Standards, Villanova, Pa.].
(§3) An inoculum level of 5×10^5 CFU/mL, and a range of antibiotic concentrations (64-0.06 μg/mL) is used. […] The test organisms include a spectrum of Gram-positive bacteria comprised of Staphylococcus sp., Streptococcus sp. and Enterococcus sp. These organisms include recent clinical isolates that are resistant to methicillin, penicillin and/or vancomycin.

Streptococcus sp. = settings: broth dilution, 18 hours at 35° C.
Method: as §1, §2, §3

Staphylococcus sp. = settings: broth dilution, 18 hours at 35° C.; for MIC Staphylococcus aureus (ATCC 29213): strain ATCC 29213; for MIC Staphylococcus aureus (GC 1131): strain GC 1131; for MIC Staphylococcus aureus (GC 3051): strain GC 3051; for MIC Staphylococcus aureus (GC 3053): strain GC 3053; for MIC Staphylococcus aureus (GC 4541): strain GC 4541; for MIC Staphylococcus aureus (GC 4542): strain GC 4542; for MIC Staphylococcus aureus (GC 4544): strain GC 4544; for MIC Staphylococcus aureus (GC 4545): strain GC 4545
Method: as §1, §2, §3

[1] = Enterococcus faecalis (ATCC 29212)
[2] = Enterococcus faecalis (GC 4552)
[3] = Enterococcus faecalis (GC 4553)
[4] = Enterococcus faecalis (GC 4554)
[5] = Enterococcus faecalis (GC 6189)

Di-N-(4-tert-butylbenzyl)-cyclo[glycyl-β-methylphenylalanyl-O-(4-O-hexopyranosylhexopyranosyl)tyrosyl-3-(2-iminoimidazolidin-4-yl)seryl-3-(3-hexoopyranosyl-2-iminoimidazolidin-4-yl)serylseryl] [Example 60a]
MIC Escherichia coli (ATCC 25922) (Escherichia coli): >128 mg/L | MIC Escherichia coli (GC 4559) (Escherichia coli): >128 mg/L | MIC Escherichia coli (GC 4560) (Escherichia coli): 16 mg/L | MIC Enterococcus avium (GC 4558) (Enterococcus sp.; Enterococcus avium (GC 4558)): 128 mg/L | MIC Enterococcus faecalis (ATCC 29212) (Enterococcus sp.; [1]): >128 mg/L | MIC Enterococcus faecalis (GC 4552) (Enterococcus sp.; [2]): >128 mg/L | MIC Enterococcus faecalis (GC 4553) (Enterococcus sp.; [3]): 128 mg/L | MIC Enterococcus faecalis (GC 4554) (Enterococcus sp.; [4]): >128 mg/L | MIC Enterococcus faecalis (GC 6189) (Enterococcus sp.; [5]): >128 mg/L | MIC Enterococcus faecium (GC 2243) (Enterococcus sp.; Enterococcus faecium (GC 2243)): >128 mg/L | MIC Enterococcus faecium (GC 4556) (Enterococcus sp.; Enterococcus faecium (GC 4556)): >128 mg/L | MIC Enterococcus faecium (GC 4557) (Enterococcus sp.; Enterococcus faecium (GC 4557)): 128 mg/L | MIC Enterococcus avium (GC 4558) (Enterococcus sp.): 128 mg/L | MIC Enterococcus faecalis (ATCC 29212) (Enterococcus sp.): >128 mg/L | MIC Enterococcus faecalis (GC 2242) (Enterococcus sp.): >128 mg/L | MIC Enterococcus faecalis (GC 2691) (Enterococcus sp.): >128 mg/L | MIC Enterococcus faecalis (GC 3059) (Enterococcus sp.): >128 mg/L | MIC Enterococcus faecalis (GC 4552) (Enterococcus sp.): >128 mg/L | MIC Enterococcus faecalis (GC 4553) (Enterococcus sp.): 128 mg/L | MIC Enterococcus faecalis (GC 4554) (Enterococcus sp.): >128 mg/L | MIC Enterococcus faecalis (GC 6189) (Enterococcus sp.): >128 mg/L | MIC Enterococcus faecium (GC 2243) (Enterococcus sp.): >128 mg/L | MIC Enterococcus faecium (GC 4556) (Enterococcus sp.): >128 mg/L | MIC Enterococcus faecium (GC 4557) (Enterococcus sp.): 128 mg/L | MIC Enterococcus faecalis (GC 2242) (Enterococcus sp.; strain GC 2242): >128 mg/L | MIC Enterococcus faecalis (GC 2691) (Enterococcus sp.; strain GC 2691): >128 mg/L | MIC Enterococcus faecalis (GC 3059) (Enterococcus sp.; strain GC 3059): >128 mg/L | MIC Streptococcus agalactiae (GC 4564) (Streptococcus sp.): >128 mg/L | MIC Streptococcus pneumoniae (ATCC 6301) (Streptococcus sp.): >128 mg/L | MIC Streptococcus pneumoniae (GC 1894) (Streptococcus sp.): 64 mg/L | MIC Streptococcus pneumoniae (GC 4565) (Streptococcus sp.): 128 mg/L | MIC Streptococcus pyogenes (GC 4563) (Streptococcus sp.): >128 mg/L | MIC Streptococcus pneumoniae (ATCC 6301) (Streptococcus sp.; strain ATCC 6301): >128 mg/L | MIC Streptococcus pneumoniae (GC 1894) (Streptococcus sp.; strain GC 1894): 64 mg/L | MIC Streptococcus pyogenes (GC 4563) (Streptococcus sp.; strain GC 4563): >128 mg/L | MIC Streptococcus agalactiae (GC 4564) (Streptococcus sp.; strain GC 4564): >128 mg/L | MIC Streptococcus pneumoniae (GC 4565) (Streptococcus sp.; strain GC 4565): 128 mg/L | MIC Staphylococcus aureus (ATCC 29213) (Staphylococcus sp.): >128 mg/L | MIC Staphylococcus aureus (GC 1131) (Staphylococcus sp.): >128 mg/L | MIC Staphylococcus aureus (GC 3051) (Staphylococcus sp.): >128 mg/L | MIC Staphylococcus aureus (GC 3053) (Staphylococcus sp.): >128 mg/L | MIC Staphylococcus aureus (GC 4541) (Staphylococcus sp.): >128 mg/L | MIC Staphylococcus aureus (GC 4542) (Staphylococcus sp.): >128 mg/L | MIC Staphylococcus aureus-SMITH (GC 4543) (Staphylococcus sp.; strain GC 4543): >128 mg/L | MIC Staphylococcus aureus (GC 4544) (Staphylococcus sp.): >128 mg/L | MIC Staphylococcus aureus (GC 4545) (Staphylococcus sp.): >128 mg/L | MIC Staphylococcus haemolyticus (GC 4546) (Staphylococcus sp.; strain GC 4546): >128 mg/L | MIC Coagulase Negative Staphylococcus (GC 4547) (Staphylococcus sp.; strain GC 4547): >128 mg/L | MIC Coagulase Negative Staphylococcus (GC 4548) (Staphylococcus sp.; strain GC 4548): >128 mg/L | MIC Coagulase Negative Staphylococcus (GC 4549) (Staphylococcus sp.; strain GC 4549): >128 mg/L | MIC Coagulase Negative Staphylococcus (GC 4551) (Staphylococcus sp.; strain GC 4551): >128 mg/L | MIC Coagulase Negative Staphylococcus (GC 6257) (Staphylococcus sp.; strain GC 6257): >128 mg/L

CC(c1ccccc1)C1NC(=O)CNC(=O)C(CO)NC(=O)C(C(O)C2CN(c3ncccn3)C(=N)N2C2OC(CO)C(O)C(O)C2O)NC(=O)C(C(O)C2CNC(=Nc3ncccn3)N2)NC(=O)C(Cc2ccc(OC3OC(CO)C(OC4OC(CO)C(O)C(O)C4O)C(O)C3O)cc2)NC1=O (stereo not drawn) [Example 92, Cyclo[glycyl-β-methylphenylalanyl-O-(4-O-hexolpyranosylhexopyranosyl)tyrosyl-3-[2-(pyrimidin-2-ylimino)imidazolidin-4-yl]seryl-3-[3-hexopyranosyl-2-imino-1-(pyrimidin-2-yl)imidazolidin-4-yl]serylseryl]]
MIC Escherichia coli (ATCC 25922) (Escherichia coli): >128 mg/L | MIC Escherichia coli (GC 4559) (Escherichia coli): >128 mg/L | MIC Escherichia coli (GC 4560) (Escherichia coli): >128 mg/L | MIC Enterococcus avium (GC 4558) (Enterococcus sp.; Enterococcus avium (GC 4558)): 128 mg/L (≈ 88.2 µM) | MIC Enterococcus faecalis (ATCC 29212) (Enterococcus sp.; [1]): >128 mg/L | MIC Enterococcus faecalis (GC 4552) (Enterococcus sp.; [2]): >128 mg/L | MIC Enterococcus faecalis (GC 4553) (Enterococcus sp.; [3]): 128 mg/L (≈ 88.2 µM) | MIC Enterococcus faecalis (GC 4554) (Enterococcus sp.; [4]): >128 mg/L | MIC Enterococcus faecalis (GC 6189) (Enterococcus sp.; [5]): >128 mg/L | MIC Enterococcus faecium (GC 2243) (Enterococcus sp.; Enterococcus faecium (GC 2243)): >128 mg/L | MIC Enterococcus faecium (GC 4556) (Enterococcus sp.; Enterococcus faecium (GC 4556)): >128 mg/L | MIC Enterococcus faecium (GC 4557) (Enterococcus sp.; Enterococcus faecium (GC 4557)): 128 mg/L (≈ 88.2 µM) | MIC Enterococcus avium (GC 4558) (Enterococcus sp.): 128 mg/L (≈ 88.2 µM) | MIC Enterococcus faecalis (ATCC 29212) (Enterococcus sp.): >128 mg/L | MIC Enterococcus faecalis (GC 2242) (Enterococcus sp.): >128 mg/L | MIC Enterococcus faecalis (GC 2691) (Enterococcus sp.): >128 mg/L | MIC Enterococcus faecalis (GC 3059) (Enterococcus sp.): >128 mg/L | MIC Enterococcus faecalis (GC 4552) (Enterococcus sp.): >128 mg/L | MIC Enterococcus faecalis (GC 4553) (Enterococcus sp.): 128 mg/L (≈ 88.2 µM) | MIC Enterococcus faecalis (GC 4554) (Enterococcus sp.): >128 mg/L | MIC Enterococcus faecalis (GC 6189) (Enterococcus sp.): >128 mg/L | MIC Enterococcus faecium (GC 2243) (Enterococcus sp.): >128 mg/L | MIC Enterococcus faecium (GC 4556) (Enterococcus sp.): >128 mg/L | MIC Enterococcus faecium (GC 4557) (Enterococcus sp.): 128 mg/L (≈ 88.2 µM) | MIC Enterococcus faecalis (GC 2242) (Enterococcus sp.; strain GC 2242): >128 mg/L | MIC Enterococcus faecalis (GC 2691) (Enterococcus sp.; strain GC 2691): >128 mg/L | MIC Enterococcus faecalis (GC 3059) (Enterococcus sp.; strain GC 3059): >128 mg/L | MIC Streptococcus agalactiae (GC 4564) (Streptococcus sp.): >128 mg/L | MIC Streptococcus pneumoniae (ATCC 6301) (Streptococcus sp.): 128 mg/L (≈ 88.2 µM) | MIC Streptococcus pneumoniae (GC 1894) (Streptococcus sp.): 128 mg/L (≈ 88.2 µM) | MIC Streptococcus pneumoniae (GC 4565) (Streptococcus sp.): 128 mg/L (≈ 88.2 µM) | MIC Streptococcus pyogenes (GC 4563) (Streptococcus sp.): >128 mg/L | MIC Streptococcus pneumoniae (ATCC 6301) (Streptococcus sp.; strain ATCC 6301): 128 mg/L (≈ 88.2 µM) | MIC Streptococcus pneumoniae (GC 1894) (Streptococcus sp.; strain GC 1894): 128 mg/L (≈ 88.2 µM) | MIC Streptococcus pyogenes (GC 4563) (Streptococcus sp.; strain GC 4563): >128 mg/L | MIC Streptococcus agalactiae (GC 4564) (Streptococcus sp.; strain GC 4564): >128 mg/L | MIC Streptococcus pneumoniae (GC 4565) (Streptococcus sp.; strain GC 4565): 128 mg/L (≈ 88.2 µM) | MIC Coagulase Negative Staphylococcus (GC 4547) (Staphylococcus sp.): >128 mg/L | MIC Coagulase Negative Staphylococcus (GC 4548) (Staphylococcus sp.): >128 mg/L | MIC Coagulase Negative Staphylococcus (GC 4549) (Staphylococcus sp.): >128 mg/L | MIC Coagulase Negative Staphylococcus (GC 4551) (Staphylococcus sp.): >128 mg/L | MIC Staphylococcus aureus-SMITH (GC 4543) (Staphylococcus sp.): >128 mg/L | MIC Staphylococcus haemolyticus (GC 4546) (Staphylococcus sp.): >128 mg/L | MIC Staphylococcus aureus (ATCC 29213) (Staphylococcus sp.): >128 mg/L | MIC Staphylococcus aureus (GC 1131) (Staphylococcus sp.): >128 mg/L | MIC Staphylococcus aureus (GC 3051) (Staphylococcus sp.): >128 mg/L | MIC Staphylococcus aureus (GC 3053) (Staphylococcus sp.): >128 mg/L | MIC Staphylococcus aureus (GC 4541) (Staphylococcus sp.): >128 mg/L | MIC Staphylococcus aureus (GC 4542) (Staphylococcus sp.): >128 mg/L | MIC Staphylococcus aureus-SMITH (GC 4543) (Staphylococcus sp.; strain GC 4543): >128 mg/L | MIC Staphylococcus aureus (GC 4544) (Staphylococcus sp.): >128 mg/L | MIC Staphylococcus aureus (GC 4545) (Staphylococcus sp.): >128 mg/L | MIC Staphylococcus haemolyticus (GC 4546) (Staphylococcus sp.; strain GC 4546): >128 mg/L | MIC Coagulase Negative Staphylococcus (GC 4547) (Staphylococcus sp.; strain GC 4547): >128 mg/L | MIC Coagulase Negative Staphylococcus (GC 4548) (Staphylococcus sp.; strain GC 4548): >128 mg/L | MIC Coagulase Negative Staphylococcus (GC 4549) (Staphylococcus sp.; strain GC 4549): >128 mg/L | MIC Coagulase Negative Staphylococcus (GC 4551) (Staphylococcus sp.; strain GC 4551): >128 mg/L
